# Assays:
# progesterone receptor = target: T1, progesterone receptor (Homo sapiens, UniProt P06401); experiment: Effects of progestins and antiprogestins on alkaline phosphatase activity in T47D cells; format: cell-based; settings: antagonist mode in the presence of 1 nM progesterone, 24 h, read-out: T47D Alkaline Phosphatase Activity IC50 (nM) or % inhibition
# T1 construct: determining a compound's effect on alkaline phosphatase activity in T47D cells; endogenous in cells; host or cells: T47D cells
# T1 sequence (P06401 1-933): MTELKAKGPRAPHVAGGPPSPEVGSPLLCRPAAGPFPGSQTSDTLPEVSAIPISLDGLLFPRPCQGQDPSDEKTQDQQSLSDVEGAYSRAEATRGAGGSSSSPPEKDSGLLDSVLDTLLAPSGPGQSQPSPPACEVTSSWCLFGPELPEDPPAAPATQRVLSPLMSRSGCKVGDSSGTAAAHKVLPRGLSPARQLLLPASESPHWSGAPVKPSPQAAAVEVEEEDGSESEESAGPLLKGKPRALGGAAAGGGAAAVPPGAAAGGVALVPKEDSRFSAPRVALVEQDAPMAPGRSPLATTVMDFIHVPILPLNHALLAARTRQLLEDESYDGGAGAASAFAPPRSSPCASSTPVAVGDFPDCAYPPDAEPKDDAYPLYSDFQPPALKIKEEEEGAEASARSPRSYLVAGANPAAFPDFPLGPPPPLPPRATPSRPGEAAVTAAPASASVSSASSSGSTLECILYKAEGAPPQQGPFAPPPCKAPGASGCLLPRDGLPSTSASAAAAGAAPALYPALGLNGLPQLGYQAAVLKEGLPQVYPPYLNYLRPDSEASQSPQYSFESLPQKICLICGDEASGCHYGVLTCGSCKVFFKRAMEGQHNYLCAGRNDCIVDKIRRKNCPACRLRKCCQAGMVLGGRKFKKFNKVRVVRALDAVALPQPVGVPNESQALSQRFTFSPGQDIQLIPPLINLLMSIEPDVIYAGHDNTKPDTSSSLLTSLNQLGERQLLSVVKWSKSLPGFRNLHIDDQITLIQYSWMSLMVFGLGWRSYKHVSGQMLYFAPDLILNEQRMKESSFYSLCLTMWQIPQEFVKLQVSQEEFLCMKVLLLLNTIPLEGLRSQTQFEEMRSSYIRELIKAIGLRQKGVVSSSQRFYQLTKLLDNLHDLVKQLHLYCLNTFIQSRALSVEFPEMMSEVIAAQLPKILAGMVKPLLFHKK
# Protocol: (1) Effects of Progestins and Antiprogestins on Alkaline Phosphatase Activity in T47D Cells
# PURPOSE: To identify progestins or antiprogestins by determining a compound's effect on alkaline phosphatase activity in T47D cells.
# Culture Medium: • DMEM:F12 (1:1) (GIBCO, BRL) supplemented with 5% (v/v) charcoal stripped fetal bovine serum (not heat-inactivated), 100 U/mL penicillin, 100 μg/mL streptomycin, and 2 mM the GlutaMax™ reagent (GEBCO, BRL).
# Alkaline phosphatase assay buffer: • I. 0.1M Tris-HCl, pH 9.8, containing 0.2% the Triton® X-100 reagent • II. 0.1M Tris-HCl, pH 9.8, containing 4 mM p-nitrophenyl phosphate (Sigma). B. Cell Culture and Treatment:
# Frozen T47D cells were thawed in a 37° C. water bath and diluted to 280,000 cells/mL in culture medium. To each well in a 96-well plate (Falcon, Becton Dickinson Labware), 180 μL of diluted cell suspension was added.
# Twenty μL of reference or test compounds diluted in the culture medium was then added to each well. […]
# For reference and test compounds, a dose response curve was generated for dose (X-axis) vs. the rate of enzyme reaction (slope) (Y-axis). […] EC50 or IC50 values were calculated from the retransformed values. […]
# Progesterone and trimegestone were reference progestins and RU486 was the reference antiprogestin. All reference compounds were run in full dose response curves and the EC50 and IC50 values were calculated.
Structure (SMILES),melting point [°C],IC50 (progesterone receptor) [nM]
"C[C@@H]1COC(=O)N1c1nc(-c2ccc(Br)cc2)cs1 [Example 1, (4R)-3-[4-(4-Bromophenyl)-1,3-thiazol-2-yl]-4-methyl-1,3-oxazolidin-2-one]",197 to 199,–
"CCC[C@@H]1COC(=O)N1c1nc(-c2ccc(Br)cc2)cs1 [Example 2, (4R)-3-[4-(4-Bromophenyl)-1,3-thiazol-2-yl]-4-propyl-1,3-oxazolidin-2-one]",114 to 116,–
"CC1(C)COC(=O)N(c2nc(-c3ccc(Br)cc3)cs2)C1 [Example 4, 3-[4-(4-Bromophenyl)-1,3-thiazol-2-yl]-5,5-dimethyl-1,3-oxazinan-2-one]",169 to 171,1370
"O=C1OCCCN1c1nc(-c2ccc(Br)cc2)cs1 [Example 3, 3-[4-(4-Bromophenyl)-1,3-thiazol-2-yl]-1,3-oxazinan-2-one]",225 to 227,238

# — patent US7538107B2, “Oxazinan-2-one derivatives useful as PR modulators” (Wyeth, priority 2006, dated 2009)
